Patent US20140066363A1, “CARBOHYDRATE NANOPARTICLES FOR PROLONGED EFFICACY OF ANTIMICROBIAL PEPTIDE” (priority 2011, published 2014)

Experiments:
Type in all cases: cell-based, Listeria monocytogenes
[1] = tested on: L. monocytogenes; experiment: BHI-agar deep-well model of nisin depletion (21 days, 4° C.) with bioassay, PG derivatives
Experimental: Nisin activity, either for those freshly prepared or stored in BHI agar deep-well, was determined as described by Pongtharangkul and Demirci (2004) with modifications. Agar diffusion bioassay was used to determine the nisin activity against L. monocytogenes. BHI (3.7%) solution containing 0.75% agar and 1.0% Tween 20 was prepared and autoclaved. After cooling to approximately 40° C., the solution was inoculated by a 1.0% volume of BHI broth containing L. monocytogenes V7 (ca. 108 colony-forming units/mL). To each square Petri-dish plate (10×10 cm), a 32 mL inoculated BHI agar solution was added and allowed to solidify. Thereafter, holes with 7.0 mm diameter were made using a cork borer, and 100 μL of each nisin preparation was added to each agar well. The Petri-dish plates were then incubated for 24 h at room temperature, and the size of inhibitory ring was measured to indicate the activity against L. monocytogenes.
In this study, a BHI-agar deep-well model was established to mimic the depletion of nisin at nutrient-containing surfaces, such as a food surface (FIG. 1). BHI is a nutritious culture medium that supplies protein and other nutrients necessary to support the growth of fastidious and nonfastidious microorganisms. It contains infusions from calf brains and beef hearts, proteose and peptone, dextrose, sodium chloride, and disodium phosphate. […] Therefore, BHI is an ideal nutrient model for studying nisin depletion and retention. Our experiments have consistently shown that BHI-containing broths and gels lead to rapid depletion of peptide activity. In a deep well filled with a liquid peptide preparation, peptide molecules diffuse from the solution into the gel (causing diffusion-based depletion), and BHI components diffuse from the agar gel into the solution (causing irreversible peptide adsorption or degradation).
For continuous sampling at various stages of storage, nisin preparations were added to the deep wells of the BHI-agar gel. For the deep-well storage, the inner surface of a well was used to mimic the outer surface of solid food. […]

[2] = tested on: L. monocytogenes V7; experiment: BHI-agar deep-well model of nisin depletion (50 days, 4° C.) with bioassay, emulsions
Experimental: To prepare emulsions, PG-OS and WCS-OS were each dissolved in sodium acetate buffer (50 mM, pH 5.5, 22° C.) to form a solution of 10 mg/mL. As a reference, 1.0 mg/mL of Tween 20 solution was also prepared using the sodium acetate buffer. Vegetable oil was added to each emulsifier solution, at twice (for PG-OS and WCS-OS) or 20 times (Tween 20) the weight of the emulsifier. […] Each mixture was further diluted with the same volume of sodium acetate buffer. […] These emulsions were sterilized using a boiling-water bath for 3 min before further tests. Nisin activity, either for those freshly prepared or stored in BHI agar deep-well, was determined as described by Pongtharangkul and […] (2004) with modifications. Agar diffusion bioassay was used to determine the nisin activity against L. monocytogenes. […] After cooling to approximately 40° C., the solution was inoculated by a 1.0% volume of BHI broth containing L. monocytogenes V7 (ca. 108 colony-forming units/mL). To each square Petri-dish plate (10×10 cm), a 32 mL inoculated BHI agar solution was added and allowed to solidify. […] The Petri-dish plates were then incubated for 24 h at room temperature, and the size of inhibitory ring was measured to indicate the activity against L. monocytogenes. […] The hot solution (225 mL) was poured into a 600-mL beaker to a height of 40 mm. After gel solidification, four wells (from gel surface to bottom) were made in each beaker using a 7.0-mm borer.

[3] = tested on: L. monocytogenes; experiment: Control storage of emulsions in regular test tubes at 4° C. with bioassay; conditions: 150 μg/mL nisin
Experimental: The label “free nisin” denotes the preparation containing nisin only in buffer. The total initial concentration of nisin was 150 μg/mL for each preparation. One portion of each preparation was applied to the model system (labeled “Model”), and another portion was stored in a regular test tube as the control (labeled “Control”). Both model and control groups were aliquoted after various storage periods for the activity tests.
Nisin activity, either for those freshly prepared or stored in BHI agar deep-well, was determined as described by Pongtharangkul and Demirci (2004) with modifications. Agar diffusion bioassay was used to determine the nisin activity against L. monocytogenes. BHI (3.7%) solution containing 0.75% agar and 1.0% Tween 20 was prepared and autoclaved. After cooling to approximately 40° C., the solution was inoculated by a 1.0% volume of BHI broth containing L. monocytogenes V7 (ca. 108 colony-forming units/mL). To each square Petri-dish plate (10×10 cm), a 32 mL inoculated BHI agar solution was added and allowed to solidify. Thereafter, holes with 7.0 mm diameter were made using a cork borer, and 100 μL of each nisin preparation was added to each agar well. The Petri-dish plates were then incubated for 24 h at room temperature, and the size of inhibitory ring was measured to indicate the activity against L. monocytogenes. […]

[4] = initial nisin 150 μg/mL, calculated from ring size by standard curve

nisin [free nisin]
retained activity at day 5 ([1]; deep wells in BHI-agar gel, summary): negligible | residual nisin activity after 7 days ([1]; deep-well model, 4° C., 100 μg/mL nisin): negligible | nisin activity at 0 day ([1]; deep-well model, initial test, 100 μg/mL nisin): highest nisin activity | size of inhibitory ring after 40 days, model groups ([2]; deep-well model, 4° C., 150 μg/mL nisin): undetectable | available nisin after 5 days [2, 4]: 10.2 µg/mL | available nisin after 20 days [2, 4]: < 1 µg/mL | available nisin after 40 days [2, 4]: negligible | change of inhibitory ring size during storage, control groups [3]: did not show an appreciable change
